Data published in PMC11325787, “A fluorescence polarization assay for high-throughput screening of inhibitors against HIV-1 Nef-mediated MHC-I downregulation” (The Journal of Biological Chemistry, 2024).
Peptide text beside a SMILES is read from it. * marks the point of attachment. X1 = CN(C)c1ccc2c(-c3ccc(C(=O)*)cc3C(=O)[O-])c3ccc(=[N+](C)C)cc-3oc2c1; 5TAMRA = CN(C)c1ccc2c(c1)Oc1cc(N(C)C)ccc1C21OC(=O)c2cc(C(=O)*)ccc21

Tests used:
[1] = biological target: T1, MBP-Nef-μ1^CTD (UniProt P03406+P35585); assay type: binding, HIV-1 (Nef 59–206, NL4.3); settings: 300 μM, result in words; for effect on FP signal: 30 μM MBP-Nef-μ1^CTD, 50 nM TMR-enhanced-MHC-ICD, room temperature; for effect on FP signal / noise in the assay: final dimethylsulfoxide 3%; for background of the assay: not shown
T1 construct: fusing HIV-1 Nef (59–206, NL4.3) to the C terminal domain of μ1 subunit of AP1; to the C terminal domain of μ1 subunit of AP1 via a flexible linker of 20 amino acids; 6xHis (C); made in house; host or cells: Escherichia coli
T1 sequence (P03406 59-206 limits assumed): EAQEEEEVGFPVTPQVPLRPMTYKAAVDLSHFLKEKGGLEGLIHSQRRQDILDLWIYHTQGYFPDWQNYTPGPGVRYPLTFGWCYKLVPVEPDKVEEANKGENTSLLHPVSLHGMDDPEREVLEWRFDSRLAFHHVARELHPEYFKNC
T1 sequence (P35585 168-421 limits assumed): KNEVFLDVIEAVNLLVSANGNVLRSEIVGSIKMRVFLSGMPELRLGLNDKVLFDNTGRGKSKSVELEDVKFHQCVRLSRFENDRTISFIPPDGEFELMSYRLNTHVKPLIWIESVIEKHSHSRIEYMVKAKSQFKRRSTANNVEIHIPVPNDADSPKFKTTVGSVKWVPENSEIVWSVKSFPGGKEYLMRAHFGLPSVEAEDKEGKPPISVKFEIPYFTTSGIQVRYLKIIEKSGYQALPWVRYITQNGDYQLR

[2] = biological target: T1, MBP-Nef-μ1^CTD; assay: Fluorescence polarization binding assay of TMR-labelled MHC-ICD probes with the Nef-μ1^CTD fusion; parameters: species or system HIV-1 (Nef 59–206, NL4.3); settings: 50 nM probe
Method: The assay volume was miniaturized and kept at 15 μl for compatibility with HTS.
Purified MBP-Nef-μ1^CTD was buffer exchanged into the assay buffer (50 mM Tris, 150 mM NaCl, 0.5 mM DTT, 0.01% Triton X-100, pH 8.0). A stock protein solution of 120 μM Nef-μ1^CTD was then prepared and was subsequently used to create different dilutions. Assays were carried out in Corning 384-well black microplates (3820). In each well, 50 nM TMR-labeled MHC-ICD peptide was mixed with MBP-Nef-μ1^CTD at varied concentrations in a total volume of 15 μl. The plate was incubated for 1∼2 h at room temperature with minimal exposure to light. FP was then measured using the EnVision plate reader (PerkinElmer) with excitation at 535 nm and emission at 595 nm. Experiments were done in triplicates. Data was fitted to nonlinear regression and plotted as a function of protein concentration in a logarithmic scale using OriginLab.
The adjusted data was then fitted to nonlinear regression for one-site binding using the following equation: Y = Bmax∗X/(KD + X) (Bmax: maximum specific binding in the same units as Y).

[3] = Stability of the probes on the bench; settings: room temperature
[4] = biological target: T1, MBP-Nef-μ1^CTD; assay: Competition of TMR-enhanced-MHC-ICD by unlabeled enhanced-MHC-ICD peptide (FP); assay type: binding, HIV-1 (Nef 59–206, NL4.3); settings: room temperature, result in words
Source text: We next investigated whether our assay is sensitive to competitive inhibition. Here, an unlabeled, modified MHC-ICD peptide was used as the competitor. The sequence of this competitor peptide is different from the authentic sequence of MHC-ICD in the following ways. […] Second, to improve the solubility of the competitor peptide, we introduced three additional mutations in the MHC-ICD sequence: Q322E, G325S, and S326D. According to the previous structure, these mutations should not interfere with Nef-μ1^CTD binding but should increase the peptide’s hydrophilicity.
The Nef-μ1^CTD fusion was constructed by fusing HIV-1 Nef (59–206, NL4.3) to the C terminal domain of μ1 subunit of AP1 via a flexible linker of 20 amino acids. Gene encoding the above Nef-μ1^CTD fusion was cloned into a modified pMAT9 expression vector with a 6xHis tag introduced at the C-terminus of the fusion protein. Escherichia coli cells transformed with the plasmid were grown at 37 °C till A600 reached 0.8. Protein expression was then induced with 0.1 mM IPTG and continued at 16 °C overnight. Cells were then lysed using sonication. The protein of interest was purified sequentially through a Ni-NTA affinity column, a MBP affinity column, a HiTrap Q anion exchange column, and finally a Superdex 200 size exclusion column.
For competition using unlabeled enhanced-MHC-ICD peptide, a stock solution of 1.2 mM unlabeled enhanced-MHC-ICD peptide was first prepared. The stock solution was then serial-diluted (2-fold each) 10 times. […] The plate was incubated at room temperature and read at different time points. FP values were recorded. All experiments were done in triplicates.

[5] = Precipitation/solubility of competitor peptide observed during experiments; assay type: physicochemical; settings: seen during experiments; stock solution 1.2 mM; result in words
[6] = biological target: TMR-MHC-ICD; assay: fluorescence polarisation

In the case of `OC[C@H]1O[C@H](O[C@H]2[C@H](O)[C@@H](O)C(O)O[C@@H]2CO)[C@H](O)[C@@H](O)[C@@H]1O` (mixture of isomers) [maltose], the “effect on FP signal” value [1] is reported as “did not lead to any meaningful decrease of the FP signal”, the “noise in the assay” value [1] is reported as “did not cause noise” and the “background of the assay” value [1] is reported as “no fluctuation at all”.
In the case of `C[C@H](NC(=O)[C@H](C)NC(=O)[C@H](CCC(N)=O)NC(=O)[C@H](CO)NC(=O)[C@H](Cc1ccc(O)cc1)NC(=O)[C@H](CO)NC(=O)c1ccc(-c2c3ccc(=[N+](C)C)cc-3oc3cc(N(C)C)ccc23)c(C(=O)[O-])c1)C(=O)NCC(=O)N[C@@H](CO)C(=O)N[C@@H](CC(=O)O)C(=O)N[C@@H](CO)C(=O)N[C@@H](C)C(=O)N[C@@H](CCC(N)=O)C(=O)O` [TMR-MHC-ICD] (X1-SYSQAAGSDSAQ-OH; N-terminus and C-terminus assumed), the Kd ([2]; FP, MBP-Nef-μ1^CTD varied, 15 μl, 384-well, 50 mM Tris, 150 mM NaCl, 0.5 mM DTT, 0.01% Triton X-100, pH 8.0, 1∼2 h, room temperature, ex 535 nm, em 595 nm, triplicates, TMR-mutant-MHC-ICD signal subtracted, one-site binding fit, read-out: KD (dissociation constant)) is reported as 44.1 µM, the “signal window (difference between probe and TMR-mutant-MHC-ICD curves)” value ([2]; low Nef-μ1^CTD concentrations, result in words) is reported as “very modest” and the stability of probe [3] is reported as “at least 20 h”.
For `CC(C)C[C@H](NC(=O)[C@H](CCC(N)=O)NC(=O)[C@H](CO)NC(=O)[C@H](Cc1ccc(O)cc1)NC(=O)[C@H](CO)NC(=O)c1ccc2c(c1)C(=O)OC21c2ccc(N(C)C)cc2Oc2cc(N(C)C)ccc21)C(=O)N[C@@H](C)C(=O)NCC(=O)N[C@@H](CO)C(=O)N[C@@H](CC(=O)O)C(=O)N[C@@H](CO)C(=O)N[C@@H](C)C(=O)N[C@@H](CCC(N)=O)C(=O)O` [TMR-enhanced-MHC-ICD] (5TAMRA-SYSQLAGSDSAQ-OH), the stability of probe [3] was “at least 20 h”.
For `O=C(N[C@H](CO)[C@H](O)c1ccc([N+](=O)[O-])cc1)C(Cl)Cl` [chloramphenicol], the “effect on FP signal” value [1] was “did not lead to any meaningful decrease of the FP signal”, the “noise in the assay” value [1] was “did not cause noise” and the “background of the assay” value [1] was “no fluctuation at all”.
In the case of `CC(C)C[C@H](NC(=O)[C@H](CCC(=O)O)NC(=O)[C@H](CO)NC(=O)[C@H](Cc1ccc(O)cc1)NC(=O)[C@@H](N)CO)C(=O)N[C@@H](C)C(=O)N[C@@H](CO)C(=O)N[C@@H](CC(=O)O)C(=O)N[C@@H](CC(=O)O)C(=O)N[C@@H](CO)C(=O)N[C@@H](C)C(=O)N[C@@H](CCC(N)=O)C(=O)O` [unlabeled enhanced MHC-ICD peptide] (H-SYSELASDDSAQ-OH; N-terminus and C-terminus assumed), the “effect on FP signal (displacement of TMR-enhanced-MHC-ICD probe)” value ([4]; 30 μM MBP-Nef-μ1^CTD, 50 nM TMR-enhanced-MHC-ICD, varied competitor, triplicates) is reported as “dose-dependent decrease of the FP signal”, the “competition of the fluorescence-labeled probe after 1-h incubation” value ([4]; 1-h incubation, three independent samples, one-way ANOVA p < 0.0001) is reported as “successfully observed” and the “competition signals after 4 h” value ([4]; 4 h, three independent samples, longer incubation led to a gradual decrease of the FP signal (not shown)) is reported as “remained stable”. For the same compound, the precipitation [5] was “sometimes forms precipitates”.
For “MBP-Nef-μ1^CTD fusion protein (from UniProt P03406;P35585)”, the Kd [6] was 44.1 µM.
In the case of TMR-SDSQAAGSRSAQ [TMR-mutant-MHC-ICD], the “FP signal at Nef-μ1^CTD concentration beyond 50 μM” value ([2]; Nef-μ1^CTD >50 μM, noise believed to be light scattering of MBP-Nef-μ1^CTD, result in words) is reported as “increased modestly” and the stability of probe [3] is reported as “at least 20 h”.
